One block for each molecule: values may come before it.
Key:
[1] = target: T1, NhaA (sodium/proton antiporter), dimeric NhaA-GFP (Escherichia coli, UniProt P13738); experiment: FSEC-TS titration of dimer stabilization, nonlinear regression; format: binding; details: pH 7.5, 150 mM NaCl, 0.03% DDM plus 1% beta-OG, heated at 47 °C; 19 CL concentrations; dimer interface site; read-out: CL dependent oligomerization concentration (midpoint)
T1 construct: full-length, C-terminal GFP-8His fusion (pWaldo GFPd), expressed in E. coli Lemo21(DE3), purified in DDM; homodimer
T1 sequence (P13738 1-388): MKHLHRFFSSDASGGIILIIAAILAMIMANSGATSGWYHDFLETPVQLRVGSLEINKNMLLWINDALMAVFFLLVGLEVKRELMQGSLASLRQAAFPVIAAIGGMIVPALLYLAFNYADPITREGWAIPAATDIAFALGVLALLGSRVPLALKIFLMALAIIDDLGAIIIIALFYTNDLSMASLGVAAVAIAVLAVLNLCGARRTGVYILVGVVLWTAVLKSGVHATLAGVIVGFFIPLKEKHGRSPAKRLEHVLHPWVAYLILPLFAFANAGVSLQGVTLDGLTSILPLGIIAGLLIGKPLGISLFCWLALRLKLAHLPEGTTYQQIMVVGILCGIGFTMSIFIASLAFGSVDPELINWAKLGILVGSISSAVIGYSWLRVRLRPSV

[2] = target: T1, NhaA (sodium/proton antiporter), dimeric NhaA-GFP; experiment: FSEC-TS thermal shift, purified NhaA-GFP; format: binding; details: purified in DDM; dimer
[3] = target: T2, human CMP–sialic acid transporter SLC35A1 (human CMP–Sia) (Homo sapiens, UniProt P78382); experiment: GFP-TS thermostabilization, DDM-solubilized membranes; format: binding; details: 5 mM ligand, heated at 42 °C, pH 7.5, 150 mM NaCl, DDM plus 1% beta-OG
T2 construct: full-length, GFP-8His fusion (pDDGFP-2), expressed in S. cerevisiae FGY217; DDM-solubilized membranes or purified
T2 sequence (P78382 1-337): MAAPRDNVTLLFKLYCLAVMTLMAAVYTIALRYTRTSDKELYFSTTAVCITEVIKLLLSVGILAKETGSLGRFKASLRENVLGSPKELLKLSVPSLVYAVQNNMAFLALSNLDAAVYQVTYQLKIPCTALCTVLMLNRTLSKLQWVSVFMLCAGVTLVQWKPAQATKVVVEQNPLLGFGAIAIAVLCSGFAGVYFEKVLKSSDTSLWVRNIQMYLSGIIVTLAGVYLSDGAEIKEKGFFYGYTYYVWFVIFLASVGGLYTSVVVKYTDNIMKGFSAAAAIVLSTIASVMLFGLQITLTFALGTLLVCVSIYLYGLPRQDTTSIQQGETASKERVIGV

[4] = target: T3, putative Zea mays CMP–sialic acid transporter (Z. mays CMP–Sia) (Zea mays, UniProt B4FZ94); experiment: as above; format: binding; details: 5 mM ligand, heated at 54 °C, pH 7.5, 150 mM NaCl, DDM plus 1% beta-OG
T3 construct: gene ZEAMMB73_Zm00001d046060; full-length synthesized clone, GFP-8His fusion (pDDGFP-2), expressed in S. cerevisiae FGY217; DDM-solubilized membranes or purified
T3 sequence (B4FZ94 1-322): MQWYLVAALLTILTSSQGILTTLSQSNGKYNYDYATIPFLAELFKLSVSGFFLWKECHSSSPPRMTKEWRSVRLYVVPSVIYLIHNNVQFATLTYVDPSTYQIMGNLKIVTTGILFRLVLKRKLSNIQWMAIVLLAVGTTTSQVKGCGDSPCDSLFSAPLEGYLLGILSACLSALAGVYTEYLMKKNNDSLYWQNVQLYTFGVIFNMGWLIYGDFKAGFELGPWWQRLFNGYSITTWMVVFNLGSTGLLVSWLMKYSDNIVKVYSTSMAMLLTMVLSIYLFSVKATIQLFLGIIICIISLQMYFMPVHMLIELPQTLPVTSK

[5] = target: T4, human NHA2 (Homo sapiens, UniProt Q86UD5); experiment: GFP-TS lipid screen, purified GFP fusion; format: binding; details: 3 mg/mL lipid, heated at apparent Tm + 5 °C, pH 7.5, 150 mM NaCl, DDM plus 1% beta-OG
T4 construct: gene SLC9B2; GFP-8His fusion (pDDGFP-2), expressed in S. cerevisiae FGY217, purified in DDM
T4 sequence (Q86UD5 1-537): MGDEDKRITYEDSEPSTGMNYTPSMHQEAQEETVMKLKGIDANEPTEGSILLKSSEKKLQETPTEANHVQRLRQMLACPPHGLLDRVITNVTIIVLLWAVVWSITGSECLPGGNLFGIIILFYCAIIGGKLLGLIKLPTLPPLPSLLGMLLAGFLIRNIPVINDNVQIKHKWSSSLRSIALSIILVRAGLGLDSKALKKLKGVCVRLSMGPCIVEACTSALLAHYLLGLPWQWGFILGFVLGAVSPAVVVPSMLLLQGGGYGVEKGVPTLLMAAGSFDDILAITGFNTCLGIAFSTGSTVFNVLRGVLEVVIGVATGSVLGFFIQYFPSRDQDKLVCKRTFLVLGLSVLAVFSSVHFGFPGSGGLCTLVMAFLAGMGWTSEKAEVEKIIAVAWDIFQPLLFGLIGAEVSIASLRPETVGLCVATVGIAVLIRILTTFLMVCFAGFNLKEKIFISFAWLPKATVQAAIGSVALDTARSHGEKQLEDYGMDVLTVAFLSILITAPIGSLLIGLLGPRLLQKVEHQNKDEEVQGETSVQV

[6] = target: T2, human CMP–sialic acid transporter SLC35A1 (human CMP–Sia); experiment: GFP-TS titration, one-site fit, DDM-solubilized membranes (also ITC on purified protein)
Text: GFP-TS titration, one-site fit, DDM-solubilized membranes (also ITC on purified protein) on human CMP–sialic acid transporter SLC35A1 (human CMP–Sia) | we used the GFP-TS to determine CMP binding affinities (Kd) for the plant and human

EC50 [1]: 1400 µM | apparent Tm without to with cardiolipin [2]: 42 to 53 °C
Structure (SMILES): CCCCCCCC/C=C\CCCCCCCC(=O)OC[C@H](COP(=O)(O)OCC(O)COP(=O)(O)OC[C@@H](COC(=O)CCCCCCC/C=C\CCCCCCCC)OC(=O)CCCCCCC/C=C\CCCCCCCC)OC(=O)CCCCCCC/C=C\CCCCCCCC (stereo partly drawn) [CL, cardiolipin (18:1)]

Structure (SMILES): CC(=O)N[C@H]1[C@H]([C@H](O)[C@H](O)CO)O[C@](OP(=O)(O)OC[C@H]2O[C@@H](n3ccc(N)nc3=O)[C@H](O)[C@@H]2O)(C(=O)O)C[C@@H]1O [CMP–sialic acid]
supernatant fluorescence after heating [3]: almost identical stabilization profile for substrates was observed for the human CMP–sialic acid transporter | supernatant fluorescence after heating [4]: higher thermostablization for CMP–sialic acid as compared to the addition of sialic acid only

Structure (SMILES): CCCCCCCC/C=C\CCCCCCCC(=O)OC[C@H](COP(=O)(O)OCC(O)CO)OC(=O)CCCCCCC/C=C\CCCCCCCC (stereo partly drawn) [DOPG]
supernatant fluorescence after heating [5]: human NHA2, where the addition of PG was clearly stabilizing

Kd [6]: 19.5 ± 3.8 µM
Structure (SMILES): Nc1ccn([C@@H]2O[C@H](COP(=O)(O)O)[C@@H](O)[C@H]2O)c(=O)n1 [CMP]
